Columns and labels:
[1] = tested on: Gli2; assay: Gli2 trafficking assay in NIH 3T3 cells; format: cell-based; details: ShhN treatment
Description: NIH 3T3 cells were also employed in an assay to quantify Gli2 trafficking NIH-3T3 cells were seeded into 24-well plates containing poly-D-lysine-coated 12-mm glass coverslips (65,000 cells/well) and cultured for 24 hrs. […] Each compound or vehicle treatment was conducted in biological triplicates in the presence or absence of 10% (v/v) ShhN-conditioned medium. The cells were subsequently fixed in PBS containing 4% (v/v) paraformaldehyde for 12 min at room temperature, washed three times with PBS, permeabilized in PBS containing 0.5% (v/v) Triton X-100 for 5 min, and washed again twice in PBS. […] After three PBS washes, the coverslips were mounted onto slides using Prolong Gold Antifade Reagent with DAPI (Invitrogen, P36931). The cells were imaged using a Plan Apochromat 63×/1.4-0.6 oil immersion objective on an upright Leica DM4500B compound microscope. Ciliary Gli2 levels were quantified by determining total pixel intensity within a circular region manually placed at the distal end of each cilium and subtracting background fluorescence in an adjacent region of equivalent size. A total of 30 cilia from three coverslips were analyzed to determine the average ciliary Gli2 level for each experimental condition as a measure of Gli2 trafficking.

[2] = tested on: Sufu-KO-LIGHT cells; assay: Sufu-KO-LIGHT cell assay, cytotoxicity (CellTiter 96 AQueous One); format: cell-based, mouse
Description: Sufu-KO-LIGHT cells were derived from Sufu knockout mouse embryonic fibroblasts according to the method of Chen et al. [Genes Dev. 2009; 23(16):1910-28.] The cells were co-transfected with the zeocin resistance vector (pVgRXR, Invitrogen) and a firefly luciferase reporter driven by eight Gli binding sites and a γ-crystallin basal promoter (8XGliBS-FL) [see Sasaki et al. Development. 1997; 124(7):1313-22.2]. […] Sufu-KO-LIGHT cells were cultured in DMEM (Invitrogen, 11965) containing 10% (v/v) fetal bovine serum (Invitrogen, No. 26140), 150 μg/mL zeocin (Invitrogen, R250-01), 1 mM sodium pyruvate (Invitrogen, 11360) and 1× PenStrep (Gibco, 15140).
(§1) All test compounds were dissolved in DMSO at 50 mM, serially diluted by 1:3, 1:4 or 1:5 in a 96-well translucent microplate (Greiner bio-one, 650201) and stored at −20° C. These serial dilutions were added to assay media freshly with final DMSO concentration of 0.2% (v/v).
The Sufu-KO-LIGHT cell assay provides a measure of Hh pathway activity and cytotoxicity. […] Bright Glo (Promega, E2620) reagent (50 μL/well) was added to the cells, and luciferase activities were determined on a microplate luminometer (Veritas). […] Cell viability was determined by measuring absorption at 490 nm after 1 hr of incubation on a microplate spectrophotometer (Benchmark Plus, Bio-Rad). Biological triplicates were analyzed for each test compounds.

[3] = target: Gli2 (Homo sapiens, UniProt P10070); assay: Overexpression of Gli2 in Gli1 null cells, firefly luciferase reporter; format: cell-based, mouse; design: expressed in transfected cells; host or cells: Gli1-/- immortalized mouse embryonic fibroblasts
Gli2 (Homo sapiens, UniProt P10070), sequence (P10070 whole entry, species assumed): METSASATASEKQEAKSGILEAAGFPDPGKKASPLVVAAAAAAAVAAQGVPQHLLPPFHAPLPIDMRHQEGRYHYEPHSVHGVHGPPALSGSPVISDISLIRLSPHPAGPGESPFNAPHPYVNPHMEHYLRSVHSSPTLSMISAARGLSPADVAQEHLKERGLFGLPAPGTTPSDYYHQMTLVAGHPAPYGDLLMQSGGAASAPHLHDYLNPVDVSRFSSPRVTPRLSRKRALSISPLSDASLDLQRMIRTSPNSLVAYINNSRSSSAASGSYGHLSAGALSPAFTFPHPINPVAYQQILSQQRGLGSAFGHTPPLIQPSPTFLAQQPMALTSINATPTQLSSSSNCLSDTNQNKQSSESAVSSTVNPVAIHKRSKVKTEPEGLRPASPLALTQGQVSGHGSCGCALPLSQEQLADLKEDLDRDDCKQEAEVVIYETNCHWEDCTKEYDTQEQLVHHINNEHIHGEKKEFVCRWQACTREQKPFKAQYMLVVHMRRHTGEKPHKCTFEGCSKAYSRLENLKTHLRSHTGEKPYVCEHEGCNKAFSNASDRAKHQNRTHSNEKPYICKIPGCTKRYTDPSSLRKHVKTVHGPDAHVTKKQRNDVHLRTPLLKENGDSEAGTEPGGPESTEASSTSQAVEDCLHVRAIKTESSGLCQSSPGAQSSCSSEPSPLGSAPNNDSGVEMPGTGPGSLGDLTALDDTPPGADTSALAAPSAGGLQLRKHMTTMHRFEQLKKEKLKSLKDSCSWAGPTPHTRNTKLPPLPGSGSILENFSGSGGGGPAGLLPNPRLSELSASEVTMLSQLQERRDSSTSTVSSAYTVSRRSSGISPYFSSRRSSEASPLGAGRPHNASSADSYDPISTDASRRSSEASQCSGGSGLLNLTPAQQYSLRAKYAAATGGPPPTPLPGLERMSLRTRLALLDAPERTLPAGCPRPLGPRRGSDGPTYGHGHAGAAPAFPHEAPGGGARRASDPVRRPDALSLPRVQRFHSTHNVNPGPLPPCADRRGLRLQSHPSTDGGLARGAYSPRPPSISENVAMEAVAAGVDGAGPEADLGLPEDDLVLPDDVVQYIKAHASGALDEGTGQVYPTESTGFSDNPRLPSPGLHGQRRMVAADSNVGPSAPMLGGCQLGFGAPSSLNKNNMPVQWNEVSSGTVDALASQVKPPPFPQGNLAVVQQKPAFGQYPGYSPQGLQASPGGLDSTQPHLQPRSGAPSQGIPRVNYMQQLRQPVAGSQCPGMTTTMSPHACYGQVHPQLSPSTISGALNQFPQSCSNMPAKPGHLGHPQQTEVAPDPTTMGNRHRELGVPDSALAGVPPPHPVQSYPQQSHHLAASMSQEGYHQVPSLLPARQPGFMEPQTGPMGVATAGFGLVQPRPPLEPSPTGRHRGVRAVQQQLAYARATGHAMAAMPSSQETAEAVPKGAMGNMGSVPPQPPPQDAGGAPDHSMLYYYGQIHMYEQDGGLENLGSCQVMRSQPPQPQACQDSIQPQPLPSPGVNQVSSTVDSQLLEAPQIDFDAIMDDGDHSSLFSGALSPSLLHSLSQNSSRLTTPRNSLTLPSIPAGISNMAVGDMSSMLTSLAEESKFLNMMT
Description: Gli1 null cells [see Lipinski et al. BMC Cell Biol. 2008; 9:49], an immortalized mouse embryonic fibroblast cell line lacking the Gli1 gene, were cultured in DMEM (Invitrogen, 11965) containing 10% (v/v) calf serum (ATCC, 30-2030), 1 mM sodium pyruvate (Invitrogen, 11360), 1× PenStrep (Gibco, 15140) and 1×MEM non-essential amino acids solution (11140, Invitrogen).
as §1
Overexpression of Gli2 in Gli1 null cells provides a measure of Gli2-induced pathway activity. pcDNA-derived Gli2 expression vectors (200 ng/well) and a 1:19 mixture (total 200 ng/well) of constitutive Renilla luciferase reporter (pRLTK, Promega) and firefly luciferase reporter (8XGliBS-FL) were mixed with FuGene HD transfection reagent (1.2 μL/well, Promega, E2311) in Opti-MEM Reduced-Serum Medium with GLutaMAX (Invitrogene, 51985) at a total volume of 25 μL/well. […] The cells were lysed with passive lysis buffer (200 μL/well), and 10 μL of the obtained lysate were analyzed for firefly and Renilla luciferase activities using Dual-Luciferase Reporter Assay System (Promega, E1960) (50 μL/well of each reagent) on a microplate luminometer (Veritas). […]

For CCOc1ccc(-[n+]2cc(-c3ccc(Br)cc3)n3c2CCCCC3)cc1 [Compound A-1], the “Effect on ShhN-induced Gli2 accrual at the ciliary distal tip” value [1] was “did not inhibit this process”, the “General cytotoxicity” value [2] was “not generally cytotoxic” and the “IC50, cytotoxicity” value ([2]; Sufu-KO-LIGHT cells) was “No toxicity”. The “Gli2-induced Hh reporter expression in cells lacking Gli1” value [3] was “not able to inhibit” and the “IC50, firefly luciferase” value ([3]; Gli2-overexpressing Gli1-/-) was “No inhibition”.
